Tests used:
B. subtilis 168 [1] = assay: fitness (endpoint OD595 vs no drug) (fraction); higher = more growth
Summary of the method: (§1)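 At 37 °C, bacteria in TSB, LB Lennox or CY were grown in 384-well plates from a starting OD595 of 0.01. OD595 was measured every 30 min for 14 h, with the first reading used as background. Fitness is the optical density at the switch to stationary phase as a fraction of the robust mean of no-drug control wells, capped at 1.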

S. pneumoniae D39V [2] = assay: as above
Summary of the method: as §1

S. aureus DSM 20231 [3] = assay: as above
Summary of the method: as §1

B. subtilis 168 [4] = assay: Bliss interaction score (quartile over a dose matrix) (fitness difference); higher = more antagonism (negative = synergy)
Summary of the method: (§2)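 Combination data were used to infer fitness under each single drug. Fitness is the OD595 at entry into stationary phase divided by the robust mean of the plate's no-drug wells, with a cap of 1. The Bliss score is the observed minus the expected product fitness, summarised by quartiles over technical, biological and donor/recipient replicates.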

S. pneumoniae D39V [5] = assay: as above
Summary of the method: as §2

S. aureus Newman = assay: as above
Summary of the method: as §2

S. aureus DSM 20231 [6] = assay: as above
Summary of the method: as §2
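Wherever Bliss interaction score (quartile over a dose matrix) is given: first quartile when negative (synergy) and third quartile when positive (antagonism).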

CCC[C@@H]1C[C@@H](C(=O)N[C@@H]([C@H]2O[C@H](SC)[C@H](O)[C@@H](O)[C@H]2O)[C@@H](C)O)N(C)C1 [Lincomycin] + CCN(CC)CCOC(=O)c1ccc(N)cc1 [Procaine]
fitness
Settings | partner 85.5 µg/mL | partner 171 µg/mL | partner 342 µg/mL
B. subtilis 168 [1], first compound 0.1 µg/mL | 0.917 | 0.932 | 0.891
B. subtilis 168 [1], first compound 0.2 µg/mL | 0.899 | 0.922 | 0.862
B. subtilis 168 [1], first compound 0.4 µg/mL | 0.875 | 0.875 | 0.853
S. aureus DSM 20231 [3], first compound 0.1 µg/mL | 0.844 | 0.926 | 0.863
S. aureus DSM 20231 [3], first compound 0.2 µg/mL | 0.749 | 0.837 | 0.821
S. aureus DSM 20231 [3], first compound 0.4 µg/mL | 0.391 | 0.39 | 0.363
S. pneumoniae D39V [2], first compound 0.215 µg/mL | 0.812 | 0.783 | 0.784
S. pneumoniae D39V [2], first compound 0.43 µg/mL | 0.717 | 0.695 | 0.697
S. pneumoniae D39V [2], first compound 0.86 µg/mL | – | 0.39 | 0.495

fitness, S. pneumoniae D39V [2], one replicate
Settings | first compound 0.2 µg/mL | first compound 0.4 µg/mL | first compound 0.8 µg/mL
partner 85.5 µg/mL | 0.748 | 0.673 | 0.0927
partner 171 µg/mL | 0.809 | 0.693 | 0.148
partner 342 µg/mL | 0.746 | 0.665 | 0.126

Settings | Bliss interaction score
B. subtilis 168 [4] | 0.0306
S. aureus DSM 20231 [6] | 0.0558
S. aureus Newman | 0.0563
S. pneumoniae D39V [5] | -0.0294

CCC[C@@H]1C[C@@H](C(=O)N[C@@H]([C@H]2O[C@H](SC)[C@H](O)[C@@H](O)[C@H]2O)[C@@H](C)O)N(C)C1 [Lincomycin] + CN1C2=CC=CC=C2N=C3C1=CC=CC3=O [Pyocyanin]
Settings | fitness
B. subtilis 168 [1], first compound 0.1 µg/mL, partner 1.25 µg/mL | 0.899
B. subtilis 168 [1], first compound 0.1 µg/mL, partner 2.5 µg/mL | 0.823
B. subtilis 168 [1], first compound 0.1 µg/mL, partner 5 µg/mL | 0.694
B. subtilis 168 [1], first compound 0.2 µg/mL, partner 1.25 µg/mL | 0.862
B. subtilis 168 [1], first compound 0.2 µg/mL, partner 2.5 µg/mL | 0.8
B. subtilis 168 [1], first compound 0.2 µg/mL, partner 5 µg/mL | 0.668
B. subtilis 168 [1], first compound 0.4 µg/mL, partner 1.25 µg/mL | 0.827
B. subtilis 168 [1], first compound 0.4 µg/mL, partner 2.5 µg/mL | 0.792
B. subtilis 168 [1], first compound 0.4 µg/mL, partner 5 µg/mL | 0.66
S. aureus DSM 20231 [3], first compound 0.1 µg/mL, partner 1.25 µg/mL | 0.794
S. aureus DSM 20231 [3], first compound 0.1 µg/mL, partner 2.5 µg/mL | 0.883
S. aureus DSM 20231 [3], first compound 0.1 µg/mL, partner 5 µg/mL | 0.555
S. aureus DSM 20231 [3], first compound 0.2 µg/mL, partner 1.25 µg/mL | 0.661
S. aureus DSM 20231 [3], first compound 0.2 µg/mL, partner 2.5 µg/mL | 0.613
S. aureus DSM 20231 [3], first compound 0.2 µg/mL, partner 5 µg/mL | 0.329
S. aureus DSM 20231 [3], first compound 0.4 µg/mL, partner 2.5 µg/mL | 0.195
S. aureus DSM 20231 [3], first compound 0.4 µg/mL, partner 5 µg/mL | 0.0887
S. pneumoniae D39V [2], first compound 0.215 µg/mL, partner 0.325 µg/mL | 0.877
S. pneumoniae D39V [2], first compound 0.215 µg/mL, partner 0.65 µg/mL | 0.855
S. pneumoniae D39V [2], first compound 0.215 µg/mL, partner 1.3 µg/mL | 0.741
S. pneumoniae D39V [2], first compound 0.43 µg/mL, partner 0.325 µg/mL | 0.575
S. pneumoniae D39V [2], first compound 0.43 µg/mL, partner 0.65 µg/mL | 0.794
S. pneumoniae D39V [2], first compound 0.43 µg/mL, partner 1.3 µg/mL | 0.665
S. pneumoniae D39V [2], first compound 0.86 µg/mL, partner 0.325 µg/mL | 0.535
S. pneumoniae D39V [2], first compound 0.86 µg/mL, partner 0.65 µg/mL | 0.489
S. pneumoniae D39V [2], first compound 0.86 µg/mL, partner 1.3 µg/mL | 0.329

fitness, S. pneumoniae D39V [2], one replicate
Settings | first compound 0.2 µg/mL | first compound 0.4 µg/mL | first compound 0.8 µg/mL
partner 0.325 µg/mL | 0.818 | 0.7 | 0.661
partner 0.65 µg/mL | 0.855 | 0.747 | 0.69

Settings | Bliss interaction score
B. subtilis 168 [4] | 0.0751
S. aureus DSM 20231 [6] | -0.1
S. aureus Newman | -0.229
S. pneumoniae D39V [5] | 0.113
